# Assay results: PMC8597055, “Exploration of Pyrazolo[1,5‐a]pyrimidines as Membrane‐Bound Pyrophosphatase Inhibitors” (Chemmedchem, 2021)
# Values joined by “and” are separate entries in the source; they are usually repeats but may differ in a detail not shown here. Identical values can stand only once. “Also recorded” adds a separate entry of the source. Like-named read-outs stand apart in the source and are kept apart here.
# Assays:
# [1] = biological target: T1, Thermotoga maritima mPPase (TmPPase) (Thermotoga maritima, UniProt Q9S5X0); assay: TmPPase inhibition assay (96-well); assay type: biochemical; conditions: for IC50 [CI95%] / IC50: TmPPase inhibition, NA = IC50 not assigned
# T1 sequence (Q9S5X0 whole entry): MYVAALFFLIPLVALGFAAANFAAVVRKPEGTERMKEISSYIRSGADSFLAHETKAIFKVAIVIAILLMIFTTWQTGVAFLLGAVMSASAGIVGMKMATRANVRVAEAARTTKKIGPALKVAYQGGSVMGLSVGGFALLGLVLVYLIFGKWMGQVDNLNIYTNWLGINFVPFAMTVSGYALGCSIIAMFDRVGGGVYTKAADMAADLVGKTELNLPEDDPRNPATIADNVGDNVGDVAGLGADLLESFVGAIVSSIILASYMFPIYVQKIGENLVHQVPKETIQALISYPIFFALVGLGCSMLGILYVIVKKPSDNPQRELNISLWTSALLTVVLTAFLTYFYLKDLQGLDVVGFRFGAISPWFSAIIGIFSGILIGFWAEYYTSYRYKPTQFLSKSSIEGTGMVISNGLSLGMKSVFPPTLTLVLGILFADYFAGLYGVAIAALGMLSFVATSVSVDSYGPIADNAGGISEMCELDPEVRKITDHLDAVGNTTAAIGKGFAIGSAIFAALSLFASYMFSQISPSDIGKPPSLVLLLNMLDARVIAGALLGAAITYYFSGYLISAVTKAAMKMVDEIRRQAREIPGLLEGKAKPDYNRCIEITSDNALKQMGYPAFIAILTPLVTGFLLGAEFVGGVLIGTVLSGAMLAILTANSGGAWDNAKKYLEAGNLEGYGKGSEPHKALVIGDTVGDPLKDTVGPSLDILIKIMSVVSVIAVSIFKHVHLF
# Description: We started from the previously identified 5‐arylisoxazole‐3‐carboxylate core present in 2–5 (Figure 1, highlighted in blue). Using KNIME,[30] we did a substructure search for commercial analogues in the ZINC12 database[31] […] Therefore, we manually picked compounds from a diverse collection provided by a single vendor (Ambinter, 174 matches for the substructure query). Out of the search results, we selected fifteen isoxazoles for testing in vitro. For all compounds in this manuscript, we tested activity using a 96‐well based assay that detects the inhibition of TmPPase.[22, 23, 24]
# (§1) All commercially obtained compounds had purities >90 % as specified by the vendor. Synthesized compounds were >95 % pure as determined by LC–MS and characterized by HRMS. The inhibition assay was carried out with purified TmPPase as previously reported.[22, 23, 24] The best hits 17 a, 19 a, and 20 a, were validated using eight compound concentrations in triplicate. Further hit validation was done against the purified mPPase from P. falciparum (PfPPase‐VP1) expressed in baculovirus‐infected insect cells (expression, purification and further enzyme analysis will be described in more detail elsewhere). 4 μL of the purified PfPPase‐VP1 (2.0 mg/mL) was reactivated in 96 μL of reactivation buffer, i. e. 20 mM 2‐(N‐morpholino)ethanesulfonic acid (MES) pH 6.5, 3.5 % (v/v) glycerol, 2 mM dithiothreitol (DTT) and 12 mg/mL L‐α‐phosphatidylcholine from soybean. For each tube strip, 3 μL of the reactivated PfPPase‐VP1 was added into 12 μL of reaction buffer (200 mM Tris‐Cl pH 8.0, 8.0 mM MgCl2, 333 mM KCl, 67 mM NaCl) and 25 μL of inhibitor solution. The reaction mixtures were incubated at 50 °C for 5 min and the assay was started with the addition of 10 μL of 2 mM sodium pyrophosphate and further incubation at 50 °C for 45 min. The reaction termination and colour development were done as earlier described.[22, 23, 24]
# 6 IC50 plots from the TmPPase inhibition assay
# The blue and black curves refer to compounds presented already in the main article and only shown in the Supporting Information, respectively. IC50, half maximal inhibitory concentration; CI95%, half maximal inhibitory concentration expressed as a 95% confidence interval (given in square brackets); […]
# IC50 determinations were done using R 3.6.1[2] and the n-parameter logistic regression (nplr) package[3] version 0.1.7. In this package, the weighted nplr, given x (compound concentrations) and y values (activity) is calculated using Richard’s equation (eq 1) where B and T are the bottom and top asymptotes, respectively; b and xmid are the Hill slope and the x coordinate at inflexion point, respectively; and s is an asymmetric coefficient. The model parameters were simultaneously optimized using non-linear minimization, using a sum of squared errors.[4] The standard error of the model, defined as the squared error on the fitted values, is used to estimate a confidence interval at 95% on the predicted IC50 values.
# [2] = biological target: purified mPPase from P. falciparum (PfPPase-VP1) (Plasmodium falciparum, UniProt Q8IKR1); assay: PfPPase-VP1 inhibition assay; assay type: biochemical; conditions: three replicates
# Sequence of purified mPPase from P. falciparum (PfPPase-VP1) (Q8IKR1 entry or part of it): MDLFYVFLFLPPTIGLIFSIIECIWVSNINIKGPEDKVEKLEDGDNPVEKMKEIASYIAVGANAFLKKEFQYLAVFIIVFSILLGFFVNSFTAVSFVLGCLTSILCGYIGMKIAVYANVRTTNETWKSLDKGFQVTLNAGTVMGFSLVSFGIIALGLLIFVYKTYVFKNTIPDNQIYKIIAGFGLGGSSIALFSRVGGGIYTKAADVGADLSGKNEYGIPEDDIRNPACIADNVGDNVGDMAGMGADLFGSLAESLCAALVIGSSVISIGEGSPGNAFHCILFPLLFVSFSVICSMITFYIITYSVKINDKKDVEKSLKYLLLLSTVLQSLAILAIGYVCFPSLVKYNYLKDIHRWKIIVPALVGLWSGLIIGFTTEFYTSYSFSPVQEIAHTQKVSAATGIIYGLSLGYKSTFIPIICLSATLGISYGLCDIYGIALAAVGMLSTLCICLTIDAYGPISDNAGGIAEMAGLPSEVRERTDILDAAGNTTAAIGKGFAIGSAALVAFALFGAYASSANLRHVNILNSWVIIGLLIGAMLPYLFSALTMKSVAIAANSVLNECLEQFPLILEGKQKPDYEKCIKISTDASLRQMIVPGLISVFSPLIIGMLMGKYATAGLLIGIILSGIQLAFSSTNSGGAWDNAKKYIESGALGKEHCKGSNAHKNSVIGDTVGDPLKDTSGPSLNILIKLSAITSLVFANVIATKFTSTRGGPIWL
# Experimental: Further hit validation was done against the purified mPPase from P. falciparum (PfPPase‐VP1) expressed in baculovirus‐infected insect cells. […] Overall, these compounds have higher IC50 values for PfPPase‐VP1 than for TmPPase.
# as §1
# [3] = Colloidal aggregation by nephelometry under TmPPase assay conditions; assay type: physicochemical
# Experimental: In order to rule out a cause of false positives, colloidal aggregation in the TmPPase model assay was evaluated for compounds 17 a, 19 a and 20 a at six concentrations (100 μM, 50 μM, 20 μM, 10 μM, 1 μM, and 0.1 μM) using the assay conditions (Figure S3).
# 3 Aggregation data for 17a, 19a and 20a (Figure S3)
# Potential colloidal aggregation in the TmPPase model system was studied by nephelometric methods using Nepheloskan Ascent® (Labsystems, Finland). The original assay conditions were simulated, and the light scattering of potential aggregates in the mixture was studied at six concentrations (100 µM, 50 µM, 20 µM, 10 µM, 1 µM and 0.1 µM). Aggregation of the blank and compounds 17a, 19a and 20a was measured as quadruplicates from one independent experiment at three different voltages (300 V, 400 V and 500 V) at room temperature. […]
# values at 10 µM, 1 µM and 0.1 µM were similar to those observed by the blank, indicating merely […]
# Figure S3. Aggregation data for compounds 17a, 19a and 20a. The data, measured in relative nephelometric units (RNU), is shown as the mean ± SD and normalized to the blank.
# (1 picture or pasted object on this page, not shown here)
# [4] = biological target: T1, Thermotoga maritima mPPase (TmPPase); set-up: method as in PMID 31131322, PMID 32292570; conditions: previously reported inhibitors, read-out: IC50 [CI95%]; cited from earlier work
# [5] = system: Plasmodium falciparum parasite strain 3D7; assay: P. falciparum survival (growth) assay in erythrocyte culture, SYBR Green I; assay type: cell-based; conditions: Plasmodium falciparum, 3D7, Erythrocyte, 72 h, strain 3D7 in human erythrocytes
# Experimental: Plasmodium falciparum parasite strain 3D7 was used for testing the antiplasmodial activity of the test compounds. The parasite was maintained in culture as described previously.[37] Briefly, parasites were cultured in O+ human erythrocytes at 5 % haematocrit in RPMI‐1640 medium supplemented with 0.5 % Albumax II (Gibco, Carlsbad, CA, USA), 200 μM hypoxanthine (Sigma, St. Louis, MO, USA) and 20 μg/mL gentamycin (Gibco). Parasites were synchronized with the sorbitol method as described.[38] Test compounds were dissolved in DMSO to make a stock solution of 10 mM or 50 mM. Two‐fold serial dilutions of the test compounds were made in the culture medium to cover either the range of 100 μM–100 nM or 400 μM–390 nM. 50 μL of each dilution were mixed in 96‐well plate with 150 μL of 2 % haematocrit of 0.5 % parasitemia (ring stage). Compound dilutions were also mixed with 150 μL of 2 % haematocrit of uninfected erythrocytes to serve as baselines for the activity of the coloured compounds. DMSO concentration in the highest compound concentration was 0.8 %. After 72 h incubation at 37 °C, the parasite growth was quantified using fluorescent SYBR Green I®‐based assay as described.[39] The half‐maximal inhibitory concentration (IC50) of the test compounds was assessed using the non‐linear regression fit model in Prism 7 (GraphPad Software, San Diego, CA, USA). The potent anti‐malarial drug, artemisinin, was used in parallel as a positive control. Each concentration of the test compounds was tested in duplicate and the assay was repeated three times. The mean and standard deviation of the three repeats were used to calculate the IC50.
# [6] = IC50, purified PfPPase-VP1, 50 °C
SMILES,IC50 [CI95%] [1],IC50 ([1]; read-out: IC50 [CI95%]),other results
"CCOC(=O)c1cc(-c2cc(C)cc(C)c2)n2nc(Br)cc2n1 [15 a, Ethyl 2‐bromo‐7‐(3,5‐dimethylphenyl)pyrazolo[1,5‐a]pyrimidine‐5‐carboxylate]",weak activity,120 µM,
"CCOC(=O)c1cc(C2CC2)n2nc(Br)cc2n1 [15 b, Ethyl 2‐bromo‐7‐cyclopropylpyrazolo[1,5‐a]pyrimidine‐5‐carboxylate]",only slightly effective,150 µM,
"Cc1cc(C)cc(-c2cc(C(=O)O)nc3cc(Br)nn23)c1 [16 a, 2‐Bromo‐7‐(3,5‐dimethylphenyl)pyrazolo[1,5‐a]pyrimidine‐5‐carboxylic acid]",inactive,,
"O=C(O)c1cc(C2CC2)n2nc(Br)cc2n1 [16 b, 2‐Bromo‐7‐cyclopropylpyrazolo[1,5‐a]pyrimidine‐5‐carboxylic acid]",completely unsuccessful,,IC50 [CI95%] ([1]; listed as 16b): Inactive
"O=C(Oc1ccccc1Br)c1cc(C2CC2)n2nc(Br)cc2n1 [17 b, 2‐Bromophenyl 2‐bromo‐7‐cyclopropylpyrazolo[1,5‐a]pyrimidine‐5‐carboxylate]",completely unsuccessful,,IC50 [CI95%] ([1]; listed as 17b): Inactive
"C=Cc1cc2nc(C(=O)OCC)cc(-c3cc(C)cc(C)c3)n2n1 [18 a, Ethyl 7‐(3,5‐dimethylphenyl)‐2‐vinylpyrazolo[1,5‐a]pyrimidine‐5‐carboxylate]",,54 µM,"fold improvement in the inhibition compared to 2-bromo analogue 15 a ([1]; TmPPase, 18 a versus 15 a): 2.2 fold"
"C=Cc1cc2nc(C(=O)OCC)cc(C3CC3)n2n1 [18 b, Ethyl 7‐cyclopropyl‐2‐vinylpyrazolo[1,5‐a]pyrimidine‐5‐carboxylate]",Inactive,,
"C=Cc1cc2nc(C(=O)O)cc(-c3cc(C)cc(C)c3)n2n1 [19 a, 7‐(3,5‐Dimethylphenyl)‐2‐vinylpyrazolo[1,5‐a]pyrimidine‐5‐carboxylic acid]",,,"IC50 ([1]; IC50 [CI95%]): 14 µM; IC50 [2, 6]: 130 µM; colloidal aggregation ([3]; six concentrations 100–0.1 μM): no detectable aggregation"
"C=Cc1cc2nc(C(=O)O)cc(C3CC3)n2n1 [19 b, 7‐Cyclopropyl‐2‐vinylpyrazolo[1,5‐a]pyrimidine‐5‐carboxylic acid]",Inactive,,
"C=Cc1cc2nc(C(=O)Oc3ccccc3Br)cc(-c3cc(C)cc(C)c3)n2n1 [20 a, 2‐Bromophenyl 7‐(3,5‐dimethylphenyl)‐2‐vinylpyrazolo[1,5‐a]pyrimidine‐5‐carboxylate]",,,"IC50 ([1]; IC50 [CI95%]): 18 µM; IC50 [2, 6]: 74 µM; concentration of aggregate formation ([3]; TmPPase assay conditions, six concentrations 100–0.1 μM): above 20 μM; colloidal aggregation ([3]; at 10 µM, 1 µM and 0.1 µM): negligible/no detectable aggregation; colloidal aggregation ([3]; at 100 µM, 50 µM and 20 µM): aggregate formation"
"C=Cc1cc2nc(C(=O)Oc3ccccc3Br)cc(C3CC3)n2n1 [20 b, 2‐Bromophenyl 7‐cyclopropyl‐2‐vinylpyrazolo[1,5‐a]pyrimidine‐5‐carboxylate]",Inactive,,
"C=Cc1cc2nc(C(=O)NCCN)cc(-c3cc(C)cc(C)c3)n2n1 [21 a, N ‐(2‐Aminoethyl)‐7‐(3,5‐dimethylphenyl)‐2‐vinylpyrazolo[1,5‐a]pyrimidine‐5‐carboxamide]",,72 µM,"fold higher inhibition than cyclopropyl-substituted analogue 21 b ([1]; TmPPase, 21 a versus 21 b): 3.6 fold"
"C=Cc1cc2nc(C(=O)NCCN)cc(C3CC3)n2n1 [21 b, N ‐(2‐Aminoethyl)‐7‐cyclopropyl‐2‐vinylpyrazolo[1,5‐a]pyrimidine‐5‐carboxamide]",,260 µM,
Nc1nc2ccc(CNC(=O)c3cc4ccccc4[nH]3)cc2s1 [compound 1],,,IC50 [4]: 2.7 µM
Cc1cccc(-c2cc(C(=O)Oc3ccccc3Br)no2)c1 [compound 3],,,IC50 [4]: 6.1 µM
CC(C)(C)c1cccc(-c2cc(C(=O)Oc3ccccc3Br)no2)c1 [compound 4],,,IC50 [4]: 6.7 µM
CCOC(=O)c1cc(-c2ccc(OC)c(S(=O)(=O)Nc3ccc4c(c3)OCO4)c2)on1 [compound 5],,,IC50 [4]: 36 µM
CCOC(=O)c1cc(-c2ccc(OC)c(S(=O)(=O)N3CCCSc4ccccc43)c2)on1 [compound 6],,5.4 µM,
CCOC(=O)c1cc(-c2ccc(OC)c(S(=O)(=O)N3c4ccccc4CC3C)c2)on1 (stereo not shown) [compound 7],,56 µM,
CCOC(=O)c1cc(-c2ccc(OC)c(S(=O)(=O)N3CC(C)CSc4ccccc43)c2)on1 (stereo not shown) [compound 8],Inactive; also recorded: not tolerated,,
CCOC(=O)c1cc(-c2ccc(OC)c(S(=O)(=O)N3CCSc4ccccc43)c2)on1 [compound 9],Inactive; also recorded: loss of all TmPPase inhibitory activity,,
CCOC(=O)c1cc(-c2ccc(OC)c(S(=O)(=O)N3CC(C)Sc4ccccc43)c2)on1 (stereo not shown) [compound 10],Inactive; also recorded: loss of all TmPPase inhibitory activity,,
COc1ccccc1S(=O)(=O)Nc1ccc(N(C)C)cc1 [compound 11],,< 25 µM and 14 µM,ligand efficiency (LE) ([1]; computed from pIC50 and heavy atom count): 0.23
COc1cc(C2c3c(-c4cc(Cl)c(C)cc4O)n[nH]c3C(=O)N2Cc2ccccc2)ccc1O (stereo not shown) [compound 12],,< 25 µM and 25 µM,"IC50 ([2]; purified PfPPase-VP1, 50 °C): comparably weak; IC50 ([2]; purified PfPPase-VP1, 50 °C, read-out: IC50): 180 µM; IC50 [5]: 3.6 µM"
